# Key:
# physchem [1] = conditions: water, pH 7
# Description: Solubility of the compound in water at pH 7.0 by HPLC
# [2] = test system: Mycobacterium tuberculosis; experiment: microbe, parasite or virus in culture; conditions: H37Rv
# [3] = test system: Mycobacterium tuberculosis; experiment: microbe, parasite or virus in culture; conditions: H37Rv; remark: listed apart in the source
# Description: Antitubercular activity against Mycobacterium tuberculosis H37Rv by LORA method
# [4] = AUC (0-infinity) in CD1 mouse plasma at 40 mg/kg, po administered as single dose; type: ADME, organism-based; set-up: time infinity, dose 40 mg/kg, route oral
# [5] = Cmax in CD1 mouse plasma at 40 mg/kg, po administered as single dose; type: ADME, organism-based; set-up: dose 40 mg/kg, route oral
# [6] = AUC (0-infinity) in CD1 mouse lung at 40 mg/kg, po administered as single dose; type: ADME, organism-based; set-up: time infinity, dose 40 mg/kg, route oral
# [7] = Cmax in CD1 mouse lung at 40 mg/kg, po administered as single dose; type: ADME, organism-based; set-up: dose 40 mg/kg, route oral
# [8] = Half life in CD1 mouse lung at 40 mg/kg, po administered as single dose; type: ADME, organism-based; set-up: dose 40 mg/kg, route oral
# [9] = Thermodynamic solubility in aqueous buffer at pH 1 at 20 degC by HPLC; type: physicochemical; conditions: aqueous buffer
# [10] = Thermodynamic solubility in aqueous buffer at pH 7.4 at 20 degC by HPLC; type: physicochemical
# physchem [11] = conditions: water, pH 1
# Description: Solubility of the compound in water at pH 1.0 by HPLC
# in vitro [12] = conditions: human, liver microsomes
# Description: Metabolic stability in human liver microsomes assessed as compound remaining after 1 hr
# in vitro [13] = conditions: CD1, mouse, liver microsomes
# Description: Metabolic stability in CD1 mouse liver microsomes assessed as compound remaining after 1 hr
# [14] = Half life in CD1 mouse plasma at 40 mg/kg, po administered as single dose; type: ADME, organism-based; set-up: dose 40 mg/kg, route oral
Structure (SMILES),solubility (physchem [1]),MIC [2],MIC [3],further results
N#Cc1ccc(-c2ccc(CO[C@@H]3COc4nc([N+](=O)[O-])cn4C3)nn2)cc1,22 µg/mL,0.36 µM,13 µM,
O=[N+]([O-])c1cn2c(n1)OC[C@@H](OCc1ncc(-c3ccc(OC(F)F)cc3)cn1)C2,7.8 µg/mL,0.12 µM,7.4 µM,
O=[N+]([O-])c1cn2c(n1)OC[C@@H](OCc1ccc(-c3ccc(OC(F)(F)F)cc3)cc1)C2,,,,AUC(0-inf) [4]: 198 µg·h/mL; Cmax [5]: 7400 ng/mL; AUC(0-inf) [6]: 218 µg·h/mL; Cmax [7]: 9000 ng/mL; half-life [8]: 13 h; solubility thermodynamic [9]: < 0.1 µg/mL; solubility thermodynamic [10]: < 0.1 µg/mL; solubility (physchem [11]): 1.1 µg/mL
O=[N+]([O-])c1cn2c(n1)OC[C@@H](OCc1cc(-c3ccc(F)cc3)ccn1)C2,16 µg/mL,0.46 µM,28 µM,
O=[N+]([O-])c1cn2c(n1)OC[C@@H](OCc1cccc(-c3ccc(OC(F)F)cc3)n1)C2,9.6 µg/mL,0.17 µM,2.7 µM,
O=[N+]([O-])c1cn2c(n1)OC[C@@H](OCc1ccc(-c3cccc(F)n3)cc1)C2,4.3 µg/mL,0.14 µM,1.1 µM,
O=[N+]([O-])c1cn2c(n1)OC[C@@H](OCc1ccc(-c3ccc(C(F)(F)F)cc3)nc1)C2,1.2 µg/mL,0.053 µM,0.53 µM,
O=[N+]([O-])c1cn2c(n1)OC[C@@H](OCc1cc(-c3ccc(OC(F)F)cc3)ccn1)C2,86 µg/mL,0.67 µM,26 µM,
O=[N+]([O-])c1cn2c(n1)OC[C@@H](OCc1ccc(-c3ccc(OC(F)F)nc3)cc1)C2,3.2 µg/mL,0.045 µM,0.66 µM,remaining at 1 h (in vitro [12]): 95%; remaining at 1 h (in vitro [13]): 75%
O=[N+]([O-])c1cn2c(n1)OC[C@@H](OCc1ccc(-c3cncc(F)c3)cc1)C2,55 µg/mL,0.55 µM,2.8 µM,
O=[N+]([O-])c1cn2c(n1)OC[C@@H](OCc1ccc(-c3ccc(OC(F)(F)F)c(Cl)c3)nc1)C2,,0.017 µM,1 µM,AUC(0-inf) [4]: 88 µg·h/mL; Cmax [5]: 2900 ng/mL; half-life [14]: 22 h; AUC(0-inf) [6]: 284 µg·h/mL; Cmax [7]: 10000 ng/mL; half-life [8]: 14 h; solubility thermodynamic [9]: 17 µg/mL; solubility thermodynamic [10]: 0.19 µg/mL; solubility (physchem [11]): 39 µg/mL; remaining at 1 h (in vitro [12]): 87%; remaining at 1 h (in vitro [13]): 77%
O=[N+]([O-])c1cn2c(n1)OC[C@@H](OCc1ncc(-c3ccc(F)cc3)cn1)C2,50 µg/mL,0.13 µM,12 µM,
O=[N+]([O-])c1cn2c(n1)OC[C@@H](OCc1ccc(-c3ccncc3)cc1)C2,22 µg/mL,0.5 µM,9.2 µM,
COc1ccc(-c2cc(CO[C@@H]3COc4nc([N+](=O)[O-])cn4C3)ccn2)cc1F,7.2 µg/mL,0.34 µM,6.2 µM,
COc1ccc(-c2ccc(CO[C@@H]3COc4nc([N+](=O)[O-])cn4C3)nn2)cc1F,6.8 µg/mL,0.25 µM,6.6 µM,
O=[N+]([O-])c1cn2c(n1)OC[C@@H](OCc1ccccc1-c1ccc(F)nc1)C2,35 µg/mL,> 8 µM,16 µM,
O=[N+]([O-])c1cn2c(n1)OC[C@@H](OCc1cc(-c3ccc(C(F)(F)F)cc3)ccn1)C2,43 µg/mL,0.88 µM,24 µM,
N#Cc1ccc(-c2ccnc(CO[C@@H]3COc4nc([N+](=O)[O-])cn4C3)c2)cc1,19 µg/mL,2.1 µM,> 32 µM,
O=[N+]([O-])c1cn2c(n1)OC[C@@H](OCc1ccnc(-c3ccc(F)cc3)c1)C2,31 µg/mL,0.17 µM,1.2 µM,
COc1ccc(-c2cc(CO[C@@H]3COc4nc([N+](=O)[O-])cn4C3)ccn2)cn1,93 µg/mL,1.3 µM,12 µM,
O=[N+]([O-])c1cn2c(n1)OC[C@@H](OCc1ccc(-c3ccncc3F)cn1)C2,700 µg/mL,3.2 µM,20 µM,

# Source: ChEMBL document CHEMBL1629541, “Synthesis and structure-activity relationships of aza- and diazabiphenyl analogues of the antitubercular drug (6S)-2-nitro-6-{[4-(trifluoromethoxy)benzyl]oxy}-6,7-dihydro-5H-imidazo[2,1-b][1,3]oxazine (PA-824)” (J Med Chem, 2010)
